Results: ChEMBL document CHEMBL1201862, “PubChem BioAssay data set” (2004)
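Step 1: Grow cells in 96-well plates. Step 2: Expose to compound for 48 hours at 5 concentrations. Step 3: Interpolate endpoints linearly; if unreached, use highest concentration. At the GI50, growth is halved.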 Calls of active or inactive are those of the source. Rule as the data show it: active = GI50 up to about 1.1 µM and inactive = higher.

What was measured:
Test in all cases: DTP human tumour cell line panel, 48 h
[1] = test system: IGROV-1
[2] = test system: UACC-62
[3] = test system: NCI/ADR-RES
[4] = test system: SK-MEL-2
[5] = test system: SK-MEL-5
[6] = test system: NCI-H23
[7] = test system: M14
[8] = test system: NCI-H460
[9] = test system: U-251
[10] = test system: MDA-MB-231
[11] = test system: A498
[12] = test system: MDA-N
[13] = test system: MCF7
[14] = test system: SN12C
[15] = test system: SNB-19
[16] = test system: NCI-H226
[17] = test system: SK-MEL-28
[18] = test system: HOP-62
[19] = test system: HCT-15
[20] = test system: SNB-75
[21] = test system: LOX IMVI
[22] = test system: HL-60
[23] = test system: SW-620
[24] = test system: BT-549
[25] = test system: HOP-92
[26] = test system: OVCAR-8
[27] = test system: UACC-257
[28] = test system: A549
[29] = test system: OVCAR-5
[30] = test system: EKVX
[31] = test system: NCI-H522
[32] = test system: DU-145
[33] = test system: T47D
[34] = test system: 786-0
[35] = test system: HT-29
[36] = test system: HCT-116
[37] = test system: SF-268
[38] = test system: UO-31
[39] = test system: COLO 205
[40] = test system: RXF 393
[41] = test system: PC-3
[42] = test system: Hs-578T
[43] = test system: TK-10
[44] = test system: CCRF-CEM
[45] = test system: SK-OV-3
[46] = test system: HCC 2998
[47] = test system: ACHN
[48] = test system: SF-295
[49] = test system: Malme-3M
[50] = test system: K562
[51] = test system: MOLT-4
[52] = test system: MDA-MB-435
[53] = test system: SR
[54] = test system: OVCAR-4
[55] = test system: RPMI-8226
[56] = test system: OVCAR-3
[57] = test system: CAKI-1
[58] = test system: SF-539
[59] = test system: KM12

Cc1cn(CC2=NCC(C)(C)CN2)c(=O)[nH]c1=O
GI50 [1]: > 100 µM (inactive)
GI50 [2]: > 100 µM (inactive)
GI50 [3]: > 100 µM (inactive)
GI50 [4]: > 100 µM (inactive)
GI50 [5]: > 100 µM (inactive)
GI50 [6]: > 100 µM (inactive)
GI50 [7]: > 100 µM (inactive)
GI50 [8]: > 100 µM (inactive)
GI50 [9]: > 100 µM (inactive)
GI50 [10]: > 100 µM (inactive)
GI50 [11]: > 100 µM (inactive)
GI50 [12]: > 100 µM (inactive)
GI50 [13]: > 100 µM (inactive)
GI50 [14]: > 100 µM (inactive)
GI50 [15]: > 100 µM (inactive)
GI50 [16]: > 100 µM (inactive)
GI50 [17]: > 100 µM (inactive)
GI50 [18]: > 100 µM (inactive)
GI50 [19]: > 100 µM
GI50 [20]: > 100 µM (inactive)
GI50 [21]: > 100 µM (inactive)
GI50 [22]: > 100 µM (inactive)
GI50 [23]: > 100 µM (inactive)
GI50 [24]: > 100 µM (inactive)
GI50 [25]: > 100 µM (inactive)
GI50 [26]: > 100 µM (inactive)
GI50 [27]: > 100 µM (inactive)
GI50 [28]: > 100 µM (inactive)
GI50 [29]: > 100 µM (inactive)
GI50 [30]: > 100 µM (inactive)
GI50 [31]: > 100 µM (inactive)
GI50 [32]: > 100 µM (inactive)
GI50 [33]: > 100 µM (inactive)
GI50 [34]: > 100 µM (inactive)
GI50 [35]: > 100 µM (inactive)
GI50 [36]: > 100 µM (inactive)
GI50 [37]: > 100 µM (inactive)
GI50 [38]: > 100 µM (inactive)
GI50 [39]: > 100 µM (inactive)
GI50 [40]: > 100 µM (inactive)
GI50 [41]: > 100 µM (inactive)
GI50 [42]: > 100 µM (inactive)
GI50 [43]: > 100 µM (inactive)
GI50 [44]: > 100 µM (inactive)
GI50 [45]: > 100 µM (inactive)
GI50 [46]: > 100 µM (inactive)
GI50 [47]: > 100 µM (inactive)
GI50 [48]: > 100 µM (inactive)
GI50 [49]: > 100 µM (inactive)

Cc1cc2c(cc1C)[n+]([O-])c(C#N)c(Cl)[n+]2[O-]
GI50 [1]: 10.6 µM (inactive)
GI50 [50]: 10.3 µM (inactive)
GI50 [2]: 11.7 µM (inactive)
GI50 [3]: 15.8 µM (inactive)
GI50 [51]: 5.05 µM (inactive)
GI50 [4]: 17.4 µM (inactive)
GI50 [52]: 21 µM (inactive)
GI50 [53]: 3.82 µM (inactive)
GI50 [5]: 11.9 µM (inactive)
GI50 [6]: 11.7 µM (inactive)
GI50 [8]: 11.7 µM (inactive)
GI50 [54]: 13.9 µM (inactive)
GI50 [9]: 13.8 µM (inactive)
GI50 [10]: 19.1 µM (inactive)
GI50 [11]: 19.7 µM (inactive)
GI50 [12]: 17.5 µM (inactive)
GI50 [13]: 12.9 µM (inactive)
GI50 [14]: 13.6 µM (inactive)
GI50 [15]: 34.3 µM (inactive)
GI50 [16]: 21.7 µM (inactive)
GI50 [17]: 14.1 µM (inactive)
GI50 [18]: 19.6 µM (inactive)
GI50 [19]: 4.35 µM
GI50 [20]: 1.88 µM (inactive)
GI50 [21]: 12.1 µM (inactive)
GI50 [22]: 7.78 µM (inactive)
GI50 [23]: 11.7 µM (inactive)
GI50 [24]: 15.6 µM (inactive)
GI50 [25]: 16.2 µM (inactive)
GI50 [26]: 15.3 µM (inactive)
GI50 [27]: 13.8 µM (inactive)
GI50 [28]: 18.6 µM (inactive)
GI50 [55]: 12.3 µM (inactive)
GI50 [29]: 12.7 µM (inactive)
GI50 [30]: 6.59 µM (inactive)
GI50 [31]: 11 µM (inactive)
GI50 [32]: 14.9 µM (inactive)
GI50 [56]: 7.78 µM (inactive)
GI50 [35]: 4.44 µM (inactive)
GI50 [57]: 6.46 µM (inactive)
GI50 [58]: 14.3 µM (inactive)
GI50 [36]: 14.1 µM (inactive)
GI50 [37]: 18.1 µM (inactive)
GI50 [38]: 12 µM (inactive)
GI50 [39]: 6.92 µM (inactive)
GI50 [40]: 13.2 µM (inactive)
GI50 [41]: 13.2 µM (inactive)
GI50 [42]: 15.9 µM (inactive)
GI50 [43]: 14.4 µM (inactive)
GI50 [44]: 4.92 µM (inactive)
GI50 [45]: 16.4 µM (inactive)
GI50 [46]: 11 µM (inactive)
GI50 [47]: 10.5 µM (inactive)
GI50 [48]: 23.7 µM (inactive)
GI50 [49]: 12.9 µM (inactive)

N#Cc1ccc(C2Oc3ccc(Cl)cc3C=C2[N+](=O)[O-])cc1 (stereo unspecified)
GI50 [1]: 1.61 µM (inactive)
GI50 [50]: 0.354 µM (active)
GI50 [2]: 1.63 µM (inactive)
GI50 [51]: 0.906 µM (active)
GI50 [4]: 1.74 µM (inactive)
GI50 [52]: 1.73 µM (inactive)
GI50 [53]: 0.157 µM (active)
GI50 [5]: 1.38 µM (inactive)
GI50 [6]: 1.48 µM (inactive)
GI50 [7]: 1.36 µM (inactive)
GI50 [59]: 1.9 µM (inactive)
GI50 [8]: 2.22 µM (inactive)
GI50 [54]: 1.79 µM (inactive)
GI50 [9]: 1.74 µM (inactive)
GI50 [10]: 1.8 µM (inactive)
GI50 [11]: 2.38 µM (inactive)
GI50 [12]: 1.53 µM (inactive)
GI50 [13]: 1.4 µM (inactive)
GI50 [14]: 1.31 µM (inactive)
GI50 [15]: 2.67 µM (inactive)
GI50 [16]: 10.6 µM (inactive)
GI50 [17]: 1.82 µM (inactive)
GI50 [18]: 1.98 µM (inactive)
GI50 [19]: 1.07 µM
GI50 [20]: 1.47 µM (inactive)
GI50 [21]: 1.04 µM (active)
GI50 [22]: 0.841 µM (active)
GI50 [23]: 0.845 µM (active)
GI50 [24]: 0.581 µM (active)
GI50 [25]: 1.39 µM (inactive)
GI50 [26]: > 10 µM (inactive)
GI50 [27]: 2.4 µM (inactive)
GI50 [28]: 1.85 µM (inactive)
GI50 [55]: 0.334 µM (active)
GI50 [29]: 2.09 µM (inactive)
GI50 [30]: 1.75 µM (inactive)
GI50 [31]: 1.34 µM (inactive)
GI50 [32]: 2.34 µM (inactive)
GI50 [33]: 0.34 µM (active)
GI50 [56]: 1.63 µM (inactive)
GI50 [35]: 2.4 µM (inactive)
GI50 [57]: 1.52 µM (inactive)
GI50 [58]: 1.87 µM (inactive)
GI50 [36]: 0.522 µM (active)
GI50 [37]: 1.91 µM (inactive)
GI50 [38]: 1.63 µM (inactive)
GI50 [39]: 0.74 µM (active)
GI50 [40]: 4.99 µM (inactive)
GI50 [41]: 1.38 µM (inactive)
GI50 [42]: 6.32 µM (inactive)
GI50 [43]: 1.85 µM (inactive)
GI50 [44]: 0.219 µM (active)
GI50 [45]: 2.27 µM (inactive)
GI50 [46]: 0.979 µM (active)
GI50 [47]: 1.67 µM (inactive)
GI50 [48]: 2.87 µM (inactive)
GI50 [49]: 2.11 µM (inactive)
